# Results taken from article PMC7875316 (Biochemistry, 2020).
# Target: T1, ClpL (Streptococcus mutans, UniProt Q8DUH3)
# T1 sequence (Q8DUH3 1-701): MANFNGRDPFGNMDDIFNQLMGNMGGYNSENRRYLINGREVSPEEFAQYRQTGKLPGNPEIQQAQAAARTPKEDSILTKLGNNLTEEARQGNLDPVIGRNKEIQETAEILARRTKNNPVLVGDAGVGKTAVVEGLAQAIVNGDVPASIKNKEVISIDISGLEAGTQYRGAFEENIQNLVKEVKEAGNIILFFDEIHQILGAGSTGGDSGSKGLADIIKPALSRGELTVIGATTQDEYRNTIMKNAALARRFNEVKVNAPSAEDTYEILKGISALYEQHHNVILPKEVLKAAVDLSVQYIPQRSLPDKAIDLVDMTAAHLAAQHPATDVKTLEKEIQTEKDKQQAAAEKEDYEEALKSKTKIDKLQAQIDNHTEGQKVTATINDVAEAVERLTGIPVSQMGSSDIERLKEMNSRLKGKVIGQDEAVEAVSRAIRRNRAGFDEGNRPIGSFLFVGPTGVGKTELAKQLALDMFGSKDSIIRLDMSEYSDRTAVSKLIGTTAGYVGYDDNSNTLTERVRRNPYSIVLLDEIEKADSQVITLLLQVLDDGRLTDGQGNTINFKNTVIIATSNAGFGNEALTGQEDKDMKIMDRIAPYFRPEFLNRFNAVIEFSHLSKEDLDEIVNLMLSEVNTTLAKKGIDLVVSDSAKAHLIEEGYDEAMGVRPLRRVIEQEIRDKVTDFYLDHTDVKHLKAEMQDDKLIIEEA
# Assay: protection from limited trypsin proteolysis, SDS-PAGE
# Type: binding
# Details: 1 mM ADP (legend; methods say 5 mM), 20 mM MgCl2, room temperature
compound,measurement,value
Nc1ncnc2c1ncn2[C@@H]1O[C@H](COP(=O)(O)OP(=O)(O)O)[C@@H](O)[C@H]1O [ADP],"protection from limited trypsin proteolysis, SDS-PAGE",Addition of ATP or ADP dramatically increased the stability of ClpL to trypsin digestion.
